Data on six compounds can be found in US4417052A, “Phenyl-lower-alkyl piperidines and pyrrolidines” (Sterling Drug Inc., priority 1981, dated 1983).

Data set [1] concerns carrageenin-induced foot edema. Put plainly: inhibition of carrageenin-induced foot edema test (C.E.). The following applies: oral; for inhibition in vivo at 80 µmol/kg: dose 0.08 millimoles/kg; for inhibition in vivo at 80 µmol/kg / inhibition in vivo at 324 µmol/kg / inhibition in vivo at 5 µmol/kg / inhibition in vivo at 20 µmol/kg / inhibition in vivo at 4 µmol/kg: read-out: C.E. percent inhibition; for inhibition in vivo at 5 µmol/kg: dose 0.005 millimoles/kg; for inhibition in vivo at 20 µmol/kg: dose 0.02 millimoles/kg; for inhibition in vivo at 4 µmol/kg: dose 0.004 millimoles/kg. The class given is in vivo.

Data set [2] deals with acetylcholine-induced abdominal constriction. Kind of data set: acetylcholine-induced abdominal constriction test (Ach). The following applies: for ED50: Mus musculus, read-out: Ach ED50. In kind it is in vivo, mice. An excerpt:
J. Pharmacol. Chemotherap. 32, 295 (1968); a modification of the anti-bradykinin test, which is also a primary analgesic screening procedure, described by Berkowitz et al., J. Pharmacol. Exp. Therap. 177, 500-508 (1971), Blane et al., J. Pharm. Pharmacol. 19, 367-373 (1967), Botha et al., Eur. J. Pharmacol. 6, 312-321 (1969) and Deffenu et al., J. Pharm. Pharmacol. 18, 135 (1966); the phenyl-p-quinone-induced writhing test, also a primary analgesic screening test, designed to measure the ability of a test agent to prevent phenyl-p-quinone-induced writhing in mice, described by Pearl and Harris, J. Pharmacol. Exptl. Therap. 154, 319-323 (1966); the rat tail flick radiant thermal heat analgesic (agonist) test described by D'Amour and Smith, J. Pharmacol. Exptl. Therap. 72, 74 (1941) as modified by Bass and VanderBrook, J. Am. Pharm. Assoc. Sci. Ed. 41, 569 (1956); and the phenazocine antagonist test, which is designed to measure the ability of a test agent to antagonize the effect of phenazocine in the above-indicated rat tail flick response test, described by Harris and Pierson, J. Pharmacol. Exptl. Therap. 143, 141 (1964).
The ED50 is the calculated Effective Dose in 50% of the test animals. The abbreviations s.c., p.o. and i.p. stand for subcutaneous, peroral and intraperitoneal routes of administration, respectively. The compounds are identified by the Example numbers above where their preparations are described.

The next data set deals with bradykinin. Kind of data set: anti-bradykinin test (BDK). The class given is in vivo. An excerpt: (§1) The test procedures used to determine the analgesic activities of the compounds have been described in detail in the prior art and are as follows: the acetylcholine-induced abdominal constriction test, which is a primary analgesic screening test designed to measure the ability of a test agent to suppress acetylcholine-induced abdominal constriction in mice, described by Collier et al., Brit. J. Pharmacol. Chemotherap. 32, 295 (1968); a modification of the anti-bradykinin test, which is also a primary analgesic screening procedure, described by Berkowitz et al., J. Pharmacol. Exp. Therap. 177, 500-508 (1971), Blane et al., J. Pharm. Pharmacol. 19, 367-373 (1967), Botha et al., Eur. J. Pharmacol. 6, 312-321 (1969) and Deffenu et al., J. Pharm. Pharmacol. 18, 135 (1966); the phenyl-p-quinone-induced writhing test, also a primary analgesic screening test, designed to measure the ability of a test agent to prevent phenyl-p-quinone-induced writhing in mice, described by Pearl and Harris, J. Pharmacol. Exptl. Therap. 154, 319-323 (1966); the rat tail flick radiant thermal heat analgesic (agonist) test described by D'Amour and Smith, J. Pharmacol. Exptl. Therap. 72, 74 (1941) as modified by Bass and VanderBrook, J. Am. Pharm. Assoc. Sci. Ed. 41, 569 (1956); and the phenazocine antagonist test, which is designed to measure the ability of a test agent to antagonize the effect of phenazocine in the above-indicated rat tail flick response test, described by Harris and Pierson, J. Pharmacol. Exptl. Therap. 143, 141 (1964).
Data so obtained for the species found active in one or more of these tests are given in TABLE C below, results being expressed either in terms of the ED50 or, in the acetylcholine-induced writhing test, as the percent inhibition of writhing in the test animals at a given dose level. The ED50 is the calculated Effective Dose in 50% of the test animals. The abbreviations s.c., p.o. and i.p. stand for subcutaneous, peroral and intraperitoneal routes of administration, respectively. The compounds are identified by the Example numbers above where their preparations are described.

The subject of data set [3] is phenyl-p-quinone-induced writhing. Put plainly: phenyl-p-quinone-induced writhing test (PPQ). The class given is in vivo, mice. The following applies: Mus musculus, po.
Excerpt: as §1, with “41, 569 (1956); and the phenazocine antagonist test, which is designed to measure the ability of a test agent to antagonize the effect of phenazocine in the above-indicated rat tail flick response test, described by Harris and Pierson, J. Pharmacol. Exptl. Therap. 143, 141 (1964).” left out

A further data set concerns rat tail flick response. Put plainly: rat tail flick radiant thermal heat analgesic (agonist) test (T.F. Ag.). The following applies: in vivo.
Excerpt: as §1, with “41, 569 (1956); and the phenazocine antagonist test, which is designed to measure the ability of a test agent to antagonize the effect of phenazocine in the above-indicated rat tail flick response test, described by Harris and Pierson, J. Pharmacol. Exptl. Therap. 143, 141 (1964).” left out

The subject of data set [4] is effect of phenazocine in the rat tail flick response. Kind of data set: phenazocine antagonist test in the rat tail flick response (T.F. Antag.). The following applies: in vivo.
Excerpt: as §1, with “41, 569 (1956); and the phenazocine antagonist test, which is designed to measure the ability of a test agent to antagonize the effect of phenazocine in the above-indicated rat tail flick response test, described by Harris and Pierson, J. Pharmacol. Exptl. Therap. 143, 141 (1964).” left out

Data set [5] is described as follows: antipyretic activity in the rat. The class given is in vivo.
Data set [6] relates to adjuvant-induced arthritis. Put plainly: inhibition of adjuvant-induced arthritis test (A.A.). In kind it is in vivo. The following applies: oral, read-out: A.A. percent inhibition; for inhibition in vivo at 5 µmol/kg: dose 0.005 millimoles/kg; for inhibition in vivo at 20 µmol/kg: dose 0.02 millimoles/kg; for inhibition in vivo at 80 µmol/kg: dose 0.08 millimoles/kg. The procedure:
Anti-inflammatory activity was determined using (1) the inhibition of carrageenin-induced foot edema test essentially described by Winter et al., Proc. Soc. Exp. Biol. and Med. 111, 554 (1962) as modified by Van Arman et al., J. Pharmacol. Exptl. Therap. 150, 328 (1965) and (2) a modification of the inhibition of adjuvant-induced arthritis test described by Pierson, J. Chronic Diseases 16, 863 (1963) and Glenn et al., Am. J. Vet. Res. 26, 1180 (1965).
The N-{2-,3- and 4-[R1 -(phenyl)-C(=X)]-phenyl-lower-alkyl}amines of formulas I, Ia and Ib of the invention have been tested in the carrageenin edema (CE) and adjuvant arthritis (AA) tests and found to have anti-inflammatory activity. For comparative purposes, data obtained in the carrageenin edema test on the reference compound (designated "Ref."), 4[(3-benzoylphenyl)methyl]morpholine, disclosed in French Patent 1,549,342, are also given. All data were obtained on oral administration.

Data set [7] concerns herpes simplex virus types 1 and 2. Kind of data set: in vitro anti-viral activity against herpes simplex viruses types 1 and 2 (BSC cell line, monkey kidney). The class given is cell-based. The following applies: read-out: MIC (Minimum Inhibitory Concentration). As for the experimental part:
Monolayers of tissue cultures (BSC, cell line, monkey kidney) were infected with one hundred TCID50 (Tissue Culture Infectious Dose50) of infectious virus. After one hour of virus adsorption, fresh maintenance medium containing various concentrations of the test compounds was added to the monolayers. Cultures were then incubated at 36°-37° C., and after forty-eight and seventy-two hours, cultures were examined microscopically. […] In the presence of an active compound, cells grow normally similar to those in the tissue culture control. Simultaneously with the anti-viral evaluation, the toxicity of each compound was evaluated in separate cultures. Identical concentrations of the test compound were added to the tissue culture monolayers in the absence of virus. Those concentrations of the compound which show toxic effects on the cells were not considered in the anti-viral evaluation.

≈ marks a conversion by molar mass, not a printed value. Like-named read-outs stand apart in the source and are kept apart here.

Usually ED50 stands for the midpoint of the dose-response relation. For the compound `CC(CN1CCOCC1)c1cccc(C(=O)c2ccccc2)c1.Cl.O` (stereo not drawn) [7H (HCl), 4-[2-(3-benzoylphenyl)propyl]morpholine hydrochloride monohydrate], the inhibition in vivo at 80 µmol/kg in [1] amounted to 68%. In addition, the inhibition in vivo at 324 µmol/kg in data set [1] (dose 0.324 millimoles/kg) turned out to be 73%. Moreover, the median effective dose (ED50) in [2] (po) amounted to 8.4 mg/kg; in data set [2] (sc) it was 14 mg/kg; with bradykinin (ip), 82 mg/kg; in the data set on bradykinin (po), 13 mg/kg; in data set [3], 132 mg/kg. Moreover, in the data set with rat tail flick response, the “T.F. Ag.” value is “Inac”. For the same compound, the “T.F. Antag.” value in [4] is listed as “Inac”. The antipyretic activity entry in data set [5] (3.25 mg./kg. p.o.) is given as “not at 3.25 mg./kg”; in [5] (6.5 mg./kg. p.o.), “Showed significant antipyretic activity”; in data set [5] (13 mg./kg. p.o.), “Showed significant antipyretic activity”; in data set [5] (26 mg./kg. p.o.), “Showed significant antipyretic activity”.

With `CC(CN1CCCCC1CC1CCCCC1)c1cccc(C(=O)c2ccccc2)c1` (stereo not drawn) [12, 14], the inhibition in vivo at 5 µmol/kg is 21% in data set [1] and 69% in data set [6]. For the same compound, the values for the inhibition in vivo at 20 µmol/kg in [1] and in data set [6] were 41% and 81%, respectively. Further, the inhibition in vivo at 80 µmol/kg in data set [1] is 51%; in data set [6], 87%. Further, the inhibition in vivo at 324 µmol/kg in data set [1] (dose 0.324 millimoles/kg) was found to be 69%. The ED50 in data set [2] (po) is 55 mg/kg; with bradykinin (po), 63 mg/kg. In addition, the “Ach percent inhibition of writhing” value in [2] (dose 75, s.c.) is on record as 27%. Moreover, in data set [7], the MIC stood at 6 µg/mL (≈ 14.9 µM).

With `CC1CCCC(C)N1CCc1cccc(C(O)c2ccccc2)c1` (stereo not drawn) [Example 1B, 2,6-Dimethyl-1-{2-[3-(α-hydroxybenzyl)phenyl]ethyl}piperidine], in [1], the inhibition in vivo at 4 µmol/kg was 0%, the inhibition in vivo at 20 µmol/kg was 0% and the inhibition in vivo at 80 µmol/kg is 13%. In addition, the “toxicity (entry in C.E. column)” value in [1] (dose 0.324 millimoles/kg) is reported as “Toxic”. In addition, the MIC in data set [7] worked out at 50 µg/mL (≈ 155 µM).

Regarding `CC(CN1CCCCC1CC1CCCCC1)c1cccc(C(O)c2ccc(Cl)cc2)c1` (stereo not drawn) [Example 5, 2-cyclohexylmethyl-1-{2-[3-(α-hydroxy-4-chlorobenzyl)phenyl]propyl}piperidine], in [1], the inhibition in vivo at 4 µmol/kg worked out at 14% and the inhibition in vivo at 20 µmol/kg was determined as 41%. For the same compound, in data set [6], the inhibition in vivo at 5 µmol/kg was found to be 64%, the inhibition in vivo at 20 µmol/kg was 70% and the inhibition in vivo at 80 µmol/kg stood at 88%. In data set [7], the MIC was found to be 6 µg/mL (≈ 13.6 µM).

On to `CC(CN1CCC2(CC1)OCCO2)c1cccc(C(=O)c2ccccc2)c1` (stereo not drawn) [Example 7G, 8-[2-(3-Benzoylphenyl)propyl]-1,4-dioxa-8-azaspiro[4,5]decane], for which the results for the ED50 (in data set [2] (po); with bradykinin (po); in data set [3]) were 4.7 mg/kg, 14 mg/kg and 200 mg/kg, respectively. The “T.F. Ag.” value in the data set with rat tail flick response is given as “Inac”. In addition, the “T.F. Antag.” value in data set [4] is “Inac”. Besides, the antipyretic activity entry in data set [5] (3.25 mg./kg. p.o.) is “not at 6.5 or 3.25 mg./kg”; in data set [5] (6.5 mg./kg. p.o.), “not at 6.5 or 3.25 mg./kg”; in [5] (13 mg./kg. p.o.), “Showed significant antipyretic activity”; in data set [5] (26 mg./kg. p.o.), “Showed significant antipyretic activity”.

Regarding `CC(CN1CCCCC1CC1CCCCC1)c1cccc(Cc2ccccc2)c1` (stereo not drawn) [Example 10, 2-cyclohexylmethyl-1-[2-(3-benzylphenyl)propyl]piperidine], in [1], the inhibition in vivo at 5 µmol/kg turned out to be 7%, the inhibition in vivo at 20 µmol/kg was determined as 26% and the inhibition in vivo at 80 µmol/kg was found to be 60%. In data set [6], the inhibition in vivo at 5 µmol/kg came to 25%, the inhibition in vivo at 20 µmol/kg is 63% and the inhibition in vivo at 80 µmol/kg was 91%. Moreover, the MIC in [7] stood at 6 µg/mL (≈ 15.4 µM).
